Test results published in patent publication US12448433B2, “Human ApoB100 epitopes, methods and uses for modulating inflammatory responses, and treating adverse cardiovascular events, disease and atherosclerosis” (LA JOLLA INSTITUTE FOR ALLERGY AND IMMUNOLOGY, priority 2015, dated 2025).
pIC50: −log10 of the molar value. No end group written: not given here.

Columns and labels:
DPB1*05:01 = assay: Peptide binding to HLA-DP allele, competition assay; design: species or system human
Description: (§1) Peptide binding to MHC-II requires anchor residues in certain positions and thus can be predicted using computer algorithms. Affinity can be measured experimentally using a competition assay (1). Both are excellent screening tools. However, affinity must be measured separately for each MHC-II allele. Humans express molecules encoded in four different MHC-II loci, denominated HLA-DRB1, DRB3/4/5, DP and DQ. Allelic variation is large, and most people are heterozygous at each locus, thus expressing up to 8 relevant MHC-II alleles. CD4 T cell responses strictly require that the antigenic peptide binds to the relevant MHC-II.
(§2) To identify peptides that could potentially be used in human patients, 30 peptides were screened for binding to 26 HLA alleles by competition assay.

DPB1*14:01 = assay: as above; design: species or system human
Description: as §1, §2

DQB1*06:02 = assay: Peptide binding to HLA-DQ allele, competition assay; design: species or system human
Description: as §1, §2

DPB1*02:01 = assay: Peptide binding to HLA-DP allele, competition assay; design: species or system human
Description: as §1, §2

DQB1*05:01 = assay: Peptide binding to HLA-DQ allele, competition assay; design: species or system human
Description: as §1, §2

DPB1*04:02 = assay: Peptide binding to HLA-DP allele, competition assay; design: species or system human
Description: as §1, §2

DPB1*04:01 = biological target: T1, DPB1*04:01 (Homo sapiens, UniProt P04440); assay: as above
T1 sequence (P04440 30-258): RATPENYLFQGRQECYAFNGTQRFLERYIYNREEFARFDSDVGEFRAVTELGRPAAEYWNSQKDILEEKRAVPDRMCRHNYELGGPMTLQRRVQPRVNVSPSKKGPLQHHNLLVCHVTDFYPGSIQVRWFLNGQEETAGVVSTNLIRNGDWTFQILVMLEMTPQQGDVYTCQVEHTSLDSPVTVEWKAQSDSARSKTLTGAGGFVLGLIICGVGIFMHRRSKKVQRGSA
T1 sequence (P20036 29-260 partner): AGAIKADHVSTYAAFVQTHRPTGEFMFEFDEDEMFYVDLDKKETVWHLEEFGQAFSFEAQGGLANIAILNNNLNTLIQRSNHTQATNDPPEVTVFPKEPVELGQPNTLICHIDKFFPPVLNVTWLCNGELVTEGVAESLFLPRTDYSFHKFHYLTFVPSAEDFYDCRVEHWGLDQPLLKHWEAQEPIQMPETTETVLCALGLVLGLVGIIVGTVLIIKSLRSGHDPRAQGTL
Description: as §1, §2

Row | Compound | pIC50 (DPB1*05:01) | pIC50 (DPB1*14:01) | pIC50 (DQB1*06:02) | pIC50 (DPB1*02:01) | pIC50 (DQB1*05:01) | pIC50 (DPB1*04:02) | pIC50 (DPB1*04:01)
1 | CC[C@H](C)[C@H](NC(=O)[C@H](CCC(=O)O)NC(=O)[C@@H](N)CC(=O)O)C(=O)N[C@@H](CC(N)=O)C(=O)N[C@H](C(=O)N[C@H](C(=O)N[C@@H](Cc1ccccc1)C(=O)N[C@@H](CO)C(=O)N[C@@H](CC(=O)O)C(=O)N[C@@H](Cc1ccc(O)cc1)C(=O)N[C@H](C(=O)N1CCC[C@H]1C(=O)N[C@@H](Cc1ccc(O)cc1)C(=O)N[C@H](C(=O)N[C@@H](Cc1ccccc1)C(=O)O)C(C)C)[C@@H](C)CC)[C@@H](C)CC)[C@@H](C)O [Peptide 3563.0026] | 5.16 | 4.82 | 5.34 |  |  |  | 
2 | CC[C@H](C)[C@H](NC(=O)CNC(=O)[C@H](CCSC)NC(=O)[C@H](CC(N)=O)NC(=O)[C@@H](NC(=O)[C@@H](NC(=O)[C@H](Cc1ccccc1)NC(=O)[C@H](CCC(=O)O)NC(=O)[C@@H](N)C(C)C)C(C)C)[C@@H](C)O)C(=O)N[C@H](C(=O)N[C@H](C(=O)N1CCC[C@H]1C(=O)N[C@@H](CC(=O)O)C(=O)N[C@@H](Cc1ccccc1)C(=O)N[C@@H](C)C(=O)O)[C@@H](C)CC)[C@@H](C)CC [Peptide 3563.0007] | 5.17 | 4.81 | 5.08 | 7.92 | 6.64 |  | 
3 | CC[C@H](C)[C@H](N)C(=O)N[C@@H](CC(=O)O)C(=O)N[C@@H](CC(C)C)C(=O)N[C@@H](CO)C(=O)N[C@H](C(=O)N[C@@H](CCC(N)=O)C(=O)N[C@@H](CC(N)=O)C(=O)N[C@@H](Cc1ccc(O)cc1)C(=O)N[C@@H](Cc1c[nH]cn1)C(=O)N[C@H](C(=O)N[C@@H](Cc1ccccc1)C(=O)N[C@@H](CC(C)C)C(=O)N[C@H](C(=O)N[C@@H](Cc1ccc(O)cc1)C(=O)N[C@H](C(=O)O)[C@@H](C)CC)[C@@H](C)CC)[C@@H](C)O)[C@@H](C)CC [Peptide 3563.0029] | 5.04 |  |  | 4.63 |  | 4.81 | 4.60
4 | TLTAFGFASADLLEI [Peptide 3563.0005] |  | 6.07 |  |  | 6.93 | 8.28 | 
5 | CC[C@H](C)[C@H](NC(=O)[C@H](CC(C)C)NC(=O)[C@H](Cc1ccc(O)cc1)NC(=O)[C@@H](NC(=O)[C@H](Cc1ccccc1)NC(=O)[C@@H](N)CCCCN)[C@@H](C)O)C(=O)N[C@@H](CC(N)=O)C(=O)N[C@@H](Cc1ccc(O)cc1)C(=O)N[C@H](C(=O)N[C@@H](CCC(N)=O)C(=O)N[C@@H](CC(=O)O)C(=O)N[C@@H](CCC(=O)O)C(=O)N[C@H](C(=O)N[C@@H](CC(N)=O)C(=O)N[C@H](C(=O)O)[C@@H](C)O)[C@@H](C)CC)[C@@H](C)CC [Peptide 3563.0025] |  | 4.86 |  |  | 7.89 |  | 
6 | CC[C@H](C)[C@H](NC(=O)[C@H](CO)NC(=O)[C@H](Cc1ccc(O)cc1)NC(=O)[C@H](CC(C)C)NC(=O)[C@H](CCCCN)NC(=O)CN)C(=O)N[C@@H](CC(C)C)C(=O)N[C@@H](CCCCN)C(=O)N[C@H](C(=O)N[C@@H](CCC(N)=O)C(=O)N[C@@H](CO)C(=O)N1CCC[C@H]1C(=O)N[C@@H](CC(C)C)C(=O)N[C@@H](Cc1ccccc1)C(=O)N[C@H](C(=O)O)[C@@H](C)O)[C@@H](C)CC [Peptide 3563.0016] | 5.62 | 5.15 |  | 5.04 | 5.22 | 6.38 | 5.68
7 | CC(C)C[C@H](NC(=O)[C@H](CC(C)C)NC(=O)[C@H](CC(C)C)NC(=O)[C@H](CC(C)C)NC(=O)[C@H](C)NC(=O)[C@@H]1CCCN1C(=O)[C@H](CC(C)C)NC(=O)[C@H](C)NC(=O)[C@H](CC(C)C)NC(=O)[C@H](CC(C)C)NC(=O)[C@H](C)NC(=O)[C@H](CC(C)C)NC(=O)[C@H](CC(C)C)NC(=O)[C@H](C)NC(=O)[C@@H]1CCCN1)C(=O)O [Peptide 3563.001] | 5.18 |  | 4.62 |  |  | 5.79 | 4.85
8 | CC[C@H](C)[C@H](NC(=O)[C@H](Cc1ccc(O)cc1)NC(=O)[C@H](CCC(N)=O)NC(=O)[C@H](Cc1c[nH]cn1)NC(=O)[C@@H](NC(=O)[C@@H](N)CCC(N)=O)[C@@H](C)CC)C(=O)N[C@@H](CCSC)C(=O)N[C@@H](C)C(=O)N[C@@H](CC(C)C)C(=O)N[C@@H](CCCNC(=N)N)C(=O)N[C@@H](CCC(=O)O)C(=O)N[C@@H](CCC(=O)O)C(=O)N[C@@H](Cc1ccc(O)cc1)C(=O)N[C@@H](Cc1ccccc1)C(=O)N[C@@H](CC(=O)O)C(=O)O [Peptide 3563.0027] | 6.91 | 5.74 | 6.05 | 7.10 |  | 7.29 | 6.09
9 | CC(C)C[C@H](NC(=O)[C@H](C)NC(=O)[C@H](Cc1ccccc1)NC(=O)[C@H](CO)NC(=O)[C@H](CO)NC(=O)[C@@H](NC(=O)[C@H](CCCNC(=N)N)NC(=O)[C@H](CC(C)C)NC(=O)[C@H](CCCCN)NC(=O)[C@H](CCCCN)NC(=O)[C@@H](N)Cc1ccc(O)cc1)[C@@H](C)O)C(=O)N[C@@H](CC(N)=O)C(=O)N[C@@H](CC(C)C)C(=O)N1CCC[C@H]1C(=O)N[C@H](C(=O)O)[C@@H](C)O [Peptide 3563.0022] | 6.66 | 7.82 | 5.58 | 8.48 |  | 7.17 | 8.68

Continued, values first:

Row | pIC50 (DPB1*05:01) | pIC50 (DPB1*14:01) | pIC50 (DQB1*06:02) | pIC50 (DPB1*02:01) | pIC50 (DQB1*05:01) | pIC50 (DPB1*04:02) | pIC50 (DPB1*04:01) | Compound
10 | 5.19 |  | 5.74 |  | 6.16 |  |  | CC[C@H](C)[C@H](NC(=O)[C@H](CCC(=O)O)NC(=O)[C@H](CC(=O)O)NC(=O)[C@@H](NC(=O)[C@@H](NC(=O)[C@H](CC(N)=O)NC(=O)[C@H](C)NC(=O)[C@@H](NC(=O)[C@H](C)NC(=O)[C@@H](NC(=O)[C@H](CCCCN)NC(=O)[C@H](CC(C)C)NC(=O)[C@H](CC(=O)O)NC(=O)[C@H](Cc1c[nH]cn1)NC(=O)[C@@H](N)CC(C)C)[C@@H](C)CC)[C@@H](C)CC)[C@@H](C)CC)[C@@H](C)CC)C(=O)O [Peptide 3563.0013]
11 |  |  | 5.61 | 5.75 | 8.40 | 6.74 | 5.59 | CC[C@H](C)[C@H](NC(=O)[C@H](CC(=O)O)NC(=O)[C@H](CC(C)C)NC(=O)[C@H](CC(C)C)NC(=O)[C@H](CCC(=O)O)NC(=O)[C@@H](N)CCC(N)=O)C(=O)N[C@@H](C)C(=O)N[C@@H](CC(N)=O)C(=O)N[C@@H](Cc1ccc(O)cc1)C(=O)N[C@@H](CC(C)C)C(=O)N[C@@H](CCSC)C(=O)N[C@@H](CCC(=O)O)C(=O)N[C@@H](CCC(N)=O)C(=O)N[C@H](C(=O)N[C@@H](CCC(N)=O)C(=O)O)[C@@H](C)CC [Peptide 3563.0003]
12 |  |  |  | 7.40 | 7.41 | 8.36 | 7.49 | CC[C@H](C)[C@H](NC(=O)[C@H](Cc1ccc(O)cc1)NC(=O)[C@H](Cc1c[nH]cn1)NC(=O)[C@H](CC(C)C)NC(=O)[C@@H](N)Cc1ccccc1)C(=O)N[C@@H](Cc1ccccc1)C(=O)N[C@@H](CCSC)C(=O)N[C@@H](CCC(=O)O)C(=O)N[C@@H](CC(N)=O)C(=O)N[C@@H](C)C(=O)N[C@@H](Cc1ccccc1)C(=O)N[C@@H](CCC(=O)O)C(=O)N[C@@H](CC(C)C)C(=O)N1CCC[C@H]1C(=O)N[C@H](C(=O)O)[C@@H](C)O [Peptide 3563.0006]
13 |  | 5.07 | 4.41 |  | 5.44 |  |  | CC[C@H](C)[C@H](NC(=O)[C@H](CC(C)C)NC(=O)[C@@H](N)CC(C)C)C(=O)N[C@@H](CC(=O)O)C(=O)N[C@H](C(=O)N[C@H](C(=O)N[C@H](C(=O)N[C@@H](Cc1ccc(O)cc1)C(=O)N[C@@H](CC(C)C)C(=O)N[C@H](C(=O)N[C@@H](C)C(=O)N[C@@H](CC(C)C)C(=O)N[C@H](C(=O)N1CCC[C@H]1C(=O)N[C@@H](CCC(=O)O)C(=O)O)[C@@H](C)CC)C(C)C)[C@@H](C)O)C(C)C)C(C)C [Peptide 3563.0002]
14 | 5.38 |  | 4.37 | 6.24 | 7.55 | 6.21 |  | LSQLTYMIQFDQYI [Peptide 3563.0012]
15 | 7.08 | 7.29 |  |  | 6.23 |  |  | CC(C)C[C@H](NC(=O)[C@H](CC(C)C)NC(=O)[C@H](Cc1ccccc1)NC(=O)[C@H](CCCCN)NC(=O)[C@H](CO)NC(=O)[C@H](Cc1ccc(O)cc1)NC(=O)[C@H](CC(C)C)NC(=O)[C@@H](N)CCC(N)=O)C(=O)N[C@@H](CCCCN)C(=O)N[C@@H](C)C(=O)N[C@@H](CCC(=O)O)C(=O)N1CCC[C@H]1C(=O)N[C@@H](CC(C)C)C(=O)N[C@@H](C)C(=O)N[C@@H](Cc1ccccc1)C(=O)O [Peptide 3563.0011]
16 | 5.42 |  | 4.91 |  | 7.72 |  |  | CC[C@H](C)[C@H](N)C(=O)N[C@@H](CC(C)C)C(=O)N[C@@H](Cc1ccccc1)C(=O)N[C@@H](CO)C(=O)N[C@@H](Cc1ccc(O)cc1)C(=O)N[C@@H](Cc1ccccc1)C(=O)N[C@@H](CCC(N)=O)C(=O)N[C@@H](CC(=O)O)C(=O)N[C@@H](CC(C)C)C(=O)N[C@H](C(=O)N[C@H](C(=O)N[C@H](C(=O)N[C@@H](CC(C)C)C(=O)N1CCC[C@H]1C(=O)N[C@@H](Cc1ccccc1)C(=O)O)[C@@H](C)O)[C@@H](C)CC)C(C)C [Peptide 3563.0023]
